As a reminder, the EC50 is the concentration that produces a half-maximal response.

The test relates to PD-1/PD-L1 interaction, Jurkat cells overexpressing PD-1 with CHO-K1 cells overexpressing TCR activator and PD-L1. Put plainly: Cell-surface PD-L1/PD-1 immune checkpoint interaction assay (NFAT-luciferase reporter). It counts as cell-based. Conditions: control antibody; increase in luciferase reporter; fit of Hill equation; mean ± SD from three independent experiments. On the procedure:
CHO-K1 expressing the TCR activator and PD-L1 and Jurkat T cells carrying an NFAT-dependent luciferase gene and overexpressing PD-1 were obtained from Promega. The cells were cultured in RPMI 1640 medium supplemented with 10% FBS with hygromycin B (50 µg/mL) and G418 (250 µg/mL) at 37 °C with 5% CO2.
24 h before the experiment, the CHO-K1 cells were seeded on a 96-well plate in an amount of 10,000 cells/well. 2.5-fold serial dilutions of p104 were prepared in DMSO followed by 1000× dilution in the assay buffer (RPMI 1640, 1% FBS). The culture medium was replaced with the assay buffer containing 0.02–250 µM of p104. The Jurkat cells in the amount of 50,000 cells/well were added and co-cultured for 3 h in standard conditions. Luminescence was determined using Bio-Glo Assay reagent (Promega, Madison, WI, USA) following manufacturer protocol. Data were normalized at vehicle-treated control.
Background: A reporter such as luciferase makes a cellular process visible.

The substance “Atezolizumab: FDA-approved therapeutic monoclonal antibody targeting PD-L1” showed an EC50 of 3.4 ± 0.2 nM.

(Values after paper PMC8401550, “Structural Characterization of a Macrocyclic Peptide Modulator of the PD-1/PD-L1 Immune Checkpoint Axis” (Molecules, 2021).)
